Columns and labels:
Aurora A = target: T1, Aurora A (Homo sapiens, UniProt O14965); test: Aurora-A autophosphorylation at T288 in HeLa cells; format: cell-based; conditions: read-out: p-T288 IC50 (Aurora-A autophosphorylation)
T1 sequence (O14965 1-403): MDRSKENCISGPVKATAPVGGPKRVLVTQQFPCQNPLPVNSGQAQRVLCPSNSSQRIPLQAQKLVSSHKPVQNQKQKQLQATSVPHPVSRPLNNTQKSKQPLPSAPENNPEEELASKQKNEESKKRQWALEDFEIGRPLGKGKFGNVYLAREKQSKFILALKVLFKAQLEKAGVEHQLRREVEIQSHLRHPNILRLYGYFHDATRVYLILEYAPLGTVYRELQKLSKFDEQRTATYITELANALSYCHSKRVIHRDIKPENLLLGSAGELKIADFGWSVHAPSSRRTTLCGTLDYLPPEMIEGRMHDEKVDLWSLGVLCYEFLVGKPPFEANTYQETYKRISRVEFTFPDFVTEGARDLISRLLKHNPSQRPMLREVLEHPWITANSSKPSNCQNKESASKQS
Text: (§1) As part of our medicinal chemistry programme to discover selective inhibitors of Aurora-A,[12] we introduced the 1-benzyl-1H-pyrazol-4-yl moiety at C7 of the imidazo[4,5-b]pyridine scaffold to provide 7a (Table 1). We previously reported 1,3-dimethyl-1H-pyrazol-4-yl as a preferred substituent at the C2 position of the imidazo[4,5-b]pyridine scaffold[11] and this moiety was therefore incorporated into the design of 7a and analogues presented in this study. […] This in vitro profile prompted us to investigate this C7-pyrazole substituted imidazo[4,5-b]pyridine subseries in more detail. Firstly, we attempted to increase biochemical potency against Aurora-A, and also to improve microsomal stability.

Aurora B [1] = target: T2, Aurora B (Homo sapiens, UniProt Q96GD4); test: Histone H3 phosphorylation at S10 in HeLa cells; format: cell-based; conditions: read-out: p-HH3 IC50 (histone H3 phosphorylation at S10)
Text: as §1

[2] = Protein binding in microsomal incubations (MLM); format: in vitro ADME, mouse
Procedure: (§2) For a better understanding of the microsomal stability data, the protein binding for 7a, 7d and 7e in microsomal incubations was measured. The percentage of 7a unbound in MLM and HLM was determined as 6.71 and 4.89, respectively. Compounds 7d and 7e were more highly bound: for 7d the percentage unbound was 0.50 in both MLM and HLM and for 7e was 0.16 and 0.10, respectively. […] The potent cell-based activity prompted us to investigate kinome selectivity profiles for this class of compound by screening 7a and 7d in a 102-kinase panel at a concentration of 1 μM.[20] […] The Gini coefficient for compound 3 was reported as 0.719,[12] and the corresponding value for compound 1 is 0.560. To understand the potential for further improvement, we obtained the crystal structure of 7a bound to Aurora-A[22] (Fig. 3, Table S3, Supplementary data). […] Similar to crystal structures of previous compounds 1, 15 and 16 (Figs. 1 and 2; compounds 51 and 40c in Ref. [10], and compound 21a in Ref. [11], respectively) the N-benzyl substituent on the C7-pyrazole is oriented towards the P-loop, making Van der Waals contacts with Val147 and Gly142 (Fig. 3).

[3] = Protein binding in microsomal incubations (HLM); format: in vitro ADME, human
Procedure: as §2

[4] = In vivo mouse pharmacokinetic profiling
Procedure: (§3) The mouse plasma protein binding for 7a and 7d was determined as 99.48% and >99.9%, respectively. […] In an attempt to improve the aqueous solubility, the Aurora inhibitory potency and kinase selectivity of this sub-series, we explored the introduction of basic substituents such as 1-methylpiperazine and pyrrolidine as well as replacement of the phenyl ring with a more polar heterocycle. […] It was anticipated that the introduction of small substituents on the phenyl ring in 7a would be well tolerated without altering its orientation in the kinase active site. Alternatively, we envisaged that Thr217 in Aurora-A may be accessed via an appropriate pyrazole N1-benzyl derivatisation such as a bulky amido substituent, which would form a favourable hydrogen bond interaction with the side chain hydroxyl of Thr217. Similar approaches were previously applied by us in the design of selective inhibitors of Aurora-A.[12,16]

[5] = Mouse plasma protein binding; format: in vitro ADME
Procedure: as §3

Kinetic solubility = format: physicochemical; conditions: phosphate buffer, pH = 6.8
Procedure: as §3
[23] Solubility measurements were performed by Pharmorphix® Solid State Services, Member of the Sigma–Aldrich Group, Cambridge, UK.

Aurora B [6] = target: T2, Aurora B; test: Kinase selectivity profiling; format: biochemical; conditions: 1 µM, assay duplicates
Method in brief: (§4)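 Each compound was tested at a single concentration of 1 µM within a broad panel of 102 or 105 protein kinases run by an external profiling centre.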

EPH-B4 = EPH-B4 (Homo sapiens, UniProt P54760); test: Kinase selectivity profiling; format: biochemical; conditions: 1 µM, assay duplicates
Method in brief: as §4

CLK2 = CLK2 (Homo sapiens, UniProt P49760); test: Kinase selectivity profiling; format: biochemical; conditions: 1 µM, assay duplicates
Procedure: (§5) [20] Kinase selectivity profiling for compounds 7a, 7d, 14d and 14g was carried out at the International Centre for Protein Kinase Profiling, Division of Signal Transduction Therapy, University of Dundee.
(§6) Table S2: Kinase selectivity profiling of compounds 14d and 14g in a 105-kinase panel screened at a concentration of 1 µM.

DAPK1 = DAPK1 (Homo sapiens, UniProt P53355); test: Kinase selectivity profiling; format: biochemical; conditions: 1 µM, assay duplicates
Procedure: as §5, §6

EPH-B2 = EPH-B2 (Homo sapiens, UniProt P29323); test: Kinase selectivity profiling; format: biochemical; conditions: 1 µM, assay duplicates
Procedure: as §5, §6

T2 sequence (Q96GD4 whole entry): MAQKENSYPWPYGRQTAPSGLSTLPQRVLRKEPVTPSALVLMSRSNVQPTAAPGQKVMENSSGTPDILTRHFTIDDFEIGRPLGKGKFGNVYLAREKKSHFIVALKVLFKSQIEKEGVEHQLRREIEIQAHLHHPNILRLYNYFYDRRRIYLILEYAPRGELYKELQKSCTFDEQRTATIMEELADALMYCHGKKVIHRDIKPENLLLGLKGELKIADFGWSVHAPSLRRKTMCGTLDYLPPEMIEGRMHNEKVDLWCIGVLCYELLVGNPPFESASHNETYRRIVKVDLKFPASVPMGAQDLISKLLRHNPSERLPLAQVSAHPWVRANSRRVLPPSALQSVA
Sequence of CLK2 (P49760 whole entry): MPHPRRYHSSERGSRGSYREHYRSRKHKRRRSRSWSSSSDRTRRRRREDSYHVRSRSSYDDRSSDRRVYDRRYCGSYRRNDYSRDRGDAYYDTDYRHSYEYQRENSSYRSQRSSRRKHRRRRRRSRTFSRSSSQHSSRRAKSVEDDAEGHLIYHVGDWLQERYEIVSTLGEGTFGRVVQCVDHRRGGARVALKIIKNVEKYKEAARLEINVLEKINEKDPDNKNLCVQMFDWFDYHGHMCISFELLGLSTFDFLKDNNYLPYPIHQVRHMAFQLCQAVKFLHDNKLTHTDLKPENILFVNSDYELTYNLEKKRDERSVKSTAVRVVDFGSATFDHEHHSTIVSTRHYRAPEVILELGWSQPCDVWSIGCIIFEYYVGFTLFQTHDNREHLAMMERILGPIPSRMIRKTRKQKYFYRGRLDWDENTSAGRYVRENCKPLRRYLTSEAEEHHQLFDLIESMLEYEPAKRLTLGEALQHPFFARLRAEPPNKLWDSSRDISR
Sequence of DAPK1 (P53355 whole entry): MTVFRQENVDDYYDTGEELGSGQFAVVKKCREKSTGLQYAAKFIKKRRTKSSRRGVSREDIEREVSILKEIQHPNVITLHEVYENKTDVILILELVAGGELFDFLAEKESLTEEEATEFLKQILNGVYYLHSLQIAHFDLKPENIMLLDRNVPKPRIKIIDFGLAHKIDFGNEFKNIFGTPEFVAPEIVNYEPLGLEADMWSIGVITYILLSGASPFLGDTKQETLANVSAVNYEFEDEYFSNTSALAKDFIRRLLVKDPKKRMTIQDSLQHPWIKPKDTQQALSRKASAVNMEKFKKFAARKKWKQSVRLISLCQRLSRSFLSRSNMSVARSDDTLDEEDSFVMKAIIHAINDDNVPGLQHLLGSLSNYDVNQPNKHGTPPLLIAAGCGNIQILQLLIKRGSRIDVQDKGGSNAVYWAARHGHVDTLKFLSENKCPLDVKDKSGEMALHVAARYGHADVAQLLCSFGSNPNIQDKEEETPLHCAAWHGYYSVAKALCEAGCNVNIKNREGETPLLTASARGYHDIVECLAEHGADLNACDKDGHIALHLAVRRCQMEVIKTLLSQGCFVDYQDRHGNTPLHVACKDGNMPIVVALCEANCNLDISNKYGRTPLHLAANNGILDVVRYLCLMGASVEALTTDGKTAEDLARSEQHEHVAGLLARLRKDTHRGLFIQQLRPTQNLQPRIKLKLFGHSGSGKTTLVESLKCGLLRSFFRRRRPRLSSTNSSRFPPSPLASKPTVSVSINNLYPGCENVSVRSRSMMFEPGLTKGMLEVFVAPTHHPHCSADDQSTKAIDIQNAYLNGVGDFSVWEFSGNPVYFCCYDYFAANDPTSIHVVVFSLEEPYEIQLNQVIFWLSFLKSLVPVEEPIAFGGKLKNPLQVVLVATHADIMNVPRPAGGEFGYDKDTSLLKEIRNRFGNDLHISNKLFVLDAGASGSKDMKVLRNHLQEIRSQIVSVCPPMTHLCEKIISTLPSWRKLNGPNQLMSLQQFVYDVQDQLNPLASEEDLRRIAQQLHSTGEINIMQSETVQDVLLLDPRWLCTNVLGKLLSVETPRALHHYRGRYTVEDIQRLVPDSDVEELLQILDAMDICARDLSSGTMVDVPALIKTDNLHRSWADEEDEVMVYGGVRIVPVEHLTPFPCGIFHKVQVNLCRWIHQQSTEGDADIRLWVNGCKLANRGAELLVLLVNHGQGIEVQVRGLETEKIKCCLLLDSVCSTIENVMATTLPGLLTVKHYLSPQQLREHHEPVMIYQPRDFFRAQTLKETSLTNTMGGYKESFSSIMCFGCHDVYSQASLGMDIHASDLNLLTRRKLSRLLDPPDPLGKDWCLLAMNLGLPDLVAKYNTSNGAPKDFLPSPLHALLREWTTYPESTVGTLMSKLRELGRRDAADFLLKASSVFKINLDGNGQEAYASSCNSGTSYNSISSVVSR
Sequence of EPH-B4 (P54760 16-987): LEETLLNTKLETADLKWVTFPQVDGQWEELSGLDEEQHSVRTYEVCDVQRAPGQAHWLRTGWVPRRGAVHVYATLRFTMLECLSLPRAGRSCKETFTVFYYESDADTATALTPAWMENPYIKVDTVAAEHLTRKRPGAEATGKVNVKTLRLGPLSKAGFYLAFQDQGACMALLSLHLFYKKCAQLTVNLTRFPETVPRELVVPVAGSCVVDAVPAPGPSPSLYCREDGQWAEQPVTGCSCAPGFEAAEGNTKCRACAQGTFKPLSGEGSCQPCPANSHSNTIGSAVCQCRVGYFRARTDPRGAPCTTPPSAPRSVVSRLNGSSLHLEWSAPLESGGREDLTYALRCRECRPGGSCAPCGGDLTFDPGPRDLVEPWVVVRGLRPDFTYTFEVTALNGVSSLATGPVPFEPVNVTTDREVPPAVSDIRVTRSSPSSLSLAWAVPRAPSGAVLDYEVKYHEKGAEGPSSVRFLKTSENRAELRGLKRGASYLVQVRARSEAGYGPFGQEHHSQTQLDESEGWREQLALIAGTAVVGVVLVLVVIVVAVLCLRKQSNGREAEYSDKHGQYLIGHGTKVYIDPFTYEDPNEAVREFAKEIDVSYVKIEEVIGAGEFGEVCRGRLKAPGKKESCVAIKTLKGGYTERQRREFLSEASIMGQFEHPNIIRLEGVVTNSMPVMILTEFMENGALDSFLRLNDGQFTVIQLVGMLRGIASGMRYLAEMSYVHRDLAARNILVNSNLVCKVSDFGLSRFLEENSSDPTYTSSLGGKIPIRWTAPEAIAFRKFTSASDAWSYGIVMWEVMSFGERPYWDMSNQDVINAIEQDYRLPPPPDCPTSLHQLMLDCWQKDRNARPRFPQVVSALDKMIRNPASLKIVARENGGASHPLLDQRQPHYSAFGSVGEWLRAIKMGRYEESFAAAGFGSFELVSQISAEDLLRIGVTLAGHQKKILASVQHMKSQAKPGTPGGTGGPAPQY
Sequence of EPH-B2 (P29323 19-1055): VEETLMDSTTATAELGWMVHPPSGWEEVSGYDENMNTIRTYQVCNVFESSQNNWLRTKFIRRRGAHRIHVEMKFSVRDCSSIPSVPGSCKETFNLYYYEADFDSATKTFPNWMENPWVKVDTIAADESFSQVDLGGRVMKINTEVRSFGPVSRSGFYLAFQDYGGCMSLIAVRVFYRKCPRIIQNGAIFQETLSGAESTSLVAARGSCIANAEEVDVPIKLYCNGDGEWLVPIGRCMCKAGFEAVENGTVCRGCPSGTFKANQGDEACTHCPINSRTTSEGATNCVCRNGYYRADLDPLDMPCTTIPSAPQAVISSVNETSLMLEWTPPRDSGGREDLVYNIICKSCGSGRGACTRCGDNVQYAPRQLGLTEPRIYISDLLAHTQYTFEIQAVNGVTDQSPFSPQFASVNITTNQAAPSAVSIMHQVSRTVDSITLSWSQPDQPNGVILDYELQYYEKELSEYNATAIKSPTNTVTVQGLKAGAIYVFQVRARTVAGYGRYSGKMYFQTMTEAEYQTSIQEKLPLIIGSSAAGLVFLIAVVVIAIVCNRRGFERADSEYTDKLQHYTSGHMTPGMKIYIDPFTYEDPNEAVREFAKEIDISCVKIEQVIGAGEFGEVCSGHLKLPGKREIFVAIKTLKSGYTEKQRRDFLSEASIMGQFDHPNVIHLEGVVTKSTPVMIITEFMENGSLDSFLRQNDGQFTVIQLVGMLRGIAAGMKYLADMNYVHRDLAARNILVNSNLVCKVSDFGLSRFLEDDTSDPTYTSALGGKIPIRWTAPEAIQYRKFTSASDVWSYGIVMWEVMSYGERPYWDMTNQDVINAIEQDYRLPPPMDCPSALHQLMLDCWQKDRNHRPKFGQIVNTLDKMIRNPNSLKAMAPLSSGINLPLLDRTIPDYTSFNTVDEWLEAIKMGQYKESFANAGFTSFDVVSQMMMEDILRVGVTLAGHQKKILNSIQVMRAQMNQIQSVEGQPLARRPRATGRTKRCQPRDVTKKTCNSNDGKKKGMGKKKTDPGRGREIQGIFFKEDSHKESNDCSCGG

SMILES | IC50 (Aurora A) [µM] | IC50 (Aurora B [1]) [µM] | percentage unbound in MLM [2] [%] | percentage unbound in HLM [3] [%] | oral bioavailability [4] [%] | mouse plasma protein binding [5] [%] | kinetic solubility (Kinetic solubility) [µg/mL] | Aurora B % activity remaining (Aurora B [6]) [%] | EPH-B4 % activity remaining (EPH-B4) [%] | CLK2 % activity remaining (CLK2) [%] | DAPK1 % activity remaining (DAPK1) [%] | EPH-B2 % activity remaining (EPH-B2) [%]
Cc1nn(C)cc1-c1nc2c(-c3cnn(Cc4ccccc4)c3)c(Cl)cnc2[nH]1 [Compound 7a] | 0.087 | 0.223 | 6.71 | 4.89 | 13 | 99.48 | < 0.1 | – | – | – | – | –
Cc1cc(Cn2cc(-c3c(Cl)cnc4[nH]c(-c5cn(C)nc5C)nc34)cn2)no1 [Compound 14d] | – | – | – | – | – | – | – | 8 | 86 | 2 | 24 | 60
